Like-named read-outs stand apart in the source and are kept apart here.
Experiments:
rhinovirus = assay: In vitro rhinovirus model; type: cell-based
influenza [1] = assay: In vivo model for influenza; parameters: species or system mice
Method: The positive control was amantadine (75 mg/kg) with 100% of the mice surviving for 21 days. 2-(Methoxycarbonylamino)benzimidazole was not active in the same test.

HT29 colon tumor cells = assay: MTT cell viability test, colon tumor cells; type: cell-based, human; settings: for EC-50 Result: MTT, 5 day incubation; for Optical Density: HT-29, control 0.398
MX1 breast cells = assay: MTT cell viability test, breast tumor cells; type: cell-based, human; settings: 5 day incubation
A549 lung tumor cells = assay: MTT cell viability test, lung tumor cells; type: cell-based, human; settings: for EC-50 Result: MTT, 5 day incubation; for Optical Density: A-549, control 0.600
colon = assay: Tumor growth reduction in mice models (Tables 5 and 6), colon; type: in vivo; settings: HT29-colon, positive control 4 mg/kg
[2] = system: HIV-1 in U1 cells (promonocytic, from U937); assay: Additional chronic HIV studies, monocytes; type: cell-based
Method: (§1) Chronic HIV-1 infected cells U1 were derived from an acute HIV-1 infection of the promonocytic cell line, U937. The chronic HIV-1 infected cells, ACH-2 were derived from an acute HIV-1 infection of the T cell line, A3.01.
(§2) These cells were cultured in medium and the phorbol ester, PMA. PMA causes the cells (both U1 and ACH-2) to be activated and not divide but it also causes the U-1 cells to differentiate. […] Cell viability was measured when these cell lines were treated with the test compound.
(§3) Both cell lines constituitively produce a small amount of HIV-1. ACH-2 cell lines tend to produce more HIV-1 than U1 cells as shown by p24 ELISA. When either cell line is cultured in the presence of PMA there is an increase in the quantity of HIV-1 produced as measured by the p24 antigen ELISA.
(§4) In addition, the number of […] positive HIV mRNA expressing cells per microscopic field is measured. Comparisons can be made from these numbers since the same number of cells were adhered to the glass slides for each drug concentration 10×10^6 cells/ml).
(§5) These cells were treated with test samples. […] The positive control was interferon which suppressed HIV monocytes replication by 80%.

HIV = assay: microbe, parasite or virus in culture; type: cell-based
B-16 mouse melanoma = system: B-16 mouse melanoma
Method: The data in Tables 1, 2 and 3 are reported in T/C which is interpreted using the following scale:
long term survivors for P388 is >30 days, for B16 it is >60 days. The NCI Measure of Success is T/C=125.
This study was performed in black mice injected i.p. with B-16 mouse melanoma which many researchers believe is the most predictive model for efficacy in humans. […] Death is the end point in this model.

P388 = assay: P-388 model for leukemia, T/C; type: in vivo, mice
Description: In the P-388 model for leukemia there was a dose responsive effect and the results were good.
The NCI Measure of Success is T/C=125.

[3] = type: in vivo
Description: Additional in vivo cancer studies are presented in a tabular form below. The data is presented in the following format—dose regimen in parenthesis, dosage in mg/kg: tumor growth suppression (tg supp.), toxic deaths/number of test subjects (deaths), % weight change (wt).

[4] = system: MX1 breast cancer tumors implanted subcutaneously; assay: Tumor growth reduction in mice models (Table 5), breast; type: in vivo
lung = type: in vivo; settings: A549-lung, positive control 125 mg/kg
MCF-7L breast line = MCF-7L breast line study versus Navelbine and Taxol, tumor weight; type: in vivo, mice; settings: 16 mg/kg qd×5 i.p., carbendazim treatment begun on day 130; c1-c4 = day 236, 239, 245, 249
[5] = given for perspective; cited from earlier work
herpes [6] = assay: In vivo herpes screening test; parameters: species or system mice
Method: The positive control was acyclovir at 75 mg/kg dose; 60% of the mice survived with a mean death date of 17.2 days.

[7] = system: breast tumor cells (MCF-7); assay: Related study of tumor cell killing (optical density); type: cell-based; settings: control 0.245
Description: In a related study using lung tumor cells (A-549) breast tumor cells (MCF-7) and colon tumor cells (HT-29), thiabeadazole effectively killed these cells.

[8] = system: HIV-1 (CEM-SK1, U937-SK1, H9-SK1, U1 and ACH2 cells); assay: HIV Virus Replication Study in chronically infected cells; type: cell-based
Method: Thiabendazole was tested in chronically infected HIV virus. These cell populations contain integrated copies of the HIV genome and constituitively produce HIV at relatively high levels (CEM-SK1, U937-SK1 and H9-SK1 from Frederick Research Center, Maryland) or are latently infected and only produce virus after stimulation with phorbol esters, tumor necrosis factor or IL6 (U1 and ACH2).
Toxicity to the chronically infected cells was similar to that observed with the uninfected cells.
After 28 days of treatment on chronically infected cells, the toxicity of the compound to the target cells appeared similar in both uninfected and chronically infected cells.
This reduction of virus production occurs at concentrations which are nontoxic to the host cell and which have no effect on the synthesis of cellular DNA, RNA and protein.

[9] = system: HIV, chronically infected cells; assay: Virus Resistance Studies; type: cell-based; settings: cultures treated at 40 and 80 μg/ml
[10] = system: HIV, chronically infected cells; assay: Reappearance of virus production from chronically infected cells previously treated; type: cell-based
[11] = system: HIV, pretreated chronically infected cells; type: cell-based; settings: irrespective of the culture conditions
[12] = system: HIV-1 in ACH-2 cells (T cell line A3.01); assay: Additional chronic HIV studies, T cells; type: cell-based; settings: 60 μg/ml
Method: as §1, §2, §3, §4, §5

influenza [13] = assay: In vitro influenza model; type: cell-based
herpes [14] = assay: In vitro herpes model; type: cell-based
[15] = system: Human Tumor Colony Forming Units; assay: In Vitro Human Tumor Colony Forming Units Test
[16] = positive control, 300 mg/kg on dose
[17] = A549 (lung), positive control 125 mg/kg
[18] = DU-145, positive control 300 mg/kg, 1 dose
[19] = HT29 (colon), positive control 300 mg/kg, 1 dose
[20] = MCF-7L (breast), positive control 300 mg/kg, 1 dose
[21] = MX1 xenograft, positive control 300 mg/kg, 1 dose
[22] = SK-MES, positive control 2 mg/kg, 5 doses
[23] = SK-MES, positive control 20 mg/kg, 5 doses

COc1ccc2nc(C(O)C(O)c3nc4ccc(OC)cc4[nH]3)[nH]c2c1 (stereo not shown) [A36683, reference compound]
therapeutic index (TI), ratio of toxic dose to efficacious dose (rhinovirus): 1000-3200

NC12CC3CC(CC(C3)C1)C2 [amantadine, reference compound]
mice surviving (influenza [1]; 75 mg/kg, for 21 days): 100%

CCCCNC(=O)n1c(NC(=O)OC)nc2ccccc21 [benomyl]
EC-50 Result (HT29 colon tumor cells; HT29, first column): 0.742 ppm
EC-50 Result (HT29 colon tumor cells; HT29, second column): 0.747 ppm
EC-50 Result (MX1 breast cells; MX1, first column): 1.42 ppm
EC-50 Result (MX1 breast cells; MX1, second column): 2.42 ppm
EC-50 Result (A549 lung tumor cells; A549, first column): 0.980 ppm
EC-50 Result (A549 lung tumor cells; A549, second column): 1.02 ppm

N.N.[Cl][Pt][Cl] [cis-plat]
Tumor Growth Decrease (colon): 59%

Cc1cn([C@H]2C[C@H](N=[N+]=[N-])[C@@H](CO)O2)c(=O)[nH]c1=O [AZT, reference compound]
activity in this model ([2]; chronic HIV model): no activity
inhibition of viral replication (HIV; 1 μg/ml): 98%

O=P1(N(CCCl)CCCl)NCCCO1 (stereo not shown) [Cytoxan, reference compound]
T/C (B-16 mouse melanoma; [16]): 191
weight change (B-16 mouse melanoma; [16]): −8.43%
increased life span, Positive Control (P388; P388-luekemia, positive control (125)): curative
T/C (P388; [16]): 191
weight change (P388; [16]): −8.43%
% weight change (wt) [3, 17]: −1%
toxic deaths/number of test subjects (deaths) [3, 17]: 0/10
tumor growth suppression (tg supp.) [3, 17]: 69%
% weight change (wt) [3, 18]: +6%
toxic deaths/number of test subjects (deaths) [3, 18]: 0/10
tumor growth suppression (tg supp.) [3, 18]: 0%
% weight change (wt) [3, 19]: +10%
toxic deaths/number of test subjects (deaths) [3, 19]: 0/10
tumor growth suppression (tg supp.) [3, 19]: 45%
% weight change (wt) [3, 20]: −15%
toxic deaths/number of test subjects (deaths) [3, 20]: 3/10
tumor growth suppression (tg supp.) [3, 20]: 100%
% weight change (wt) [3, 21]: −7%
toxic deaths/number of test subjects (deaths) [3, 21]: 0/10
tumor growth suppression (tg supp.) [3, 21]: complete
Tumor Growth Decrease ([4]; MXI-breast, positive control 125 mg/kg): regression
Tumor Growth Decrease (lung): 69%

CCC1=C[C@@H]2CN(C1)Cc1c([nH]c3ccccc13)[C@@](C(=O)OC)(c1cc3c(cc1OC)N(C)[C@H]1[C@@](O)(C(=O)OC)[C@H](OC(C)=O)[C@]4(CC)C=CCN5CC[C@]31[C@@H]54)C2 [Navelbine]
increased life span, Positive Control (B-16 mouse melanoma; B16 melanoma, positive control (2)): 265%
% weight change (wt) [3, 22]: −5%
toxic deaths/number of test subjects (deaths) [3, 22]: 1/10
tumor growth suppression (tg supp.) [3, 22]: 26%

CC(=O)O[C@H]1C(=O)[C@@]2(C)[C@H]([C@H](OC(=O)c3ccccc3)[C@]3(O)C[C@H](OC(=O)[C@H](O)[C@@H](NC(=O)c4ccccc4)c4ccccc4)C(C)=C1C3(C)C)[C@]1(OC(C)=O)CO[C@@H]1C[C@@H]2O [Taxol]
tumor weight (MCF-7L breast line): 0 mg
% weight change (wt) [3, 23]: +1%
toxic deaths/number of test subjects (deaths) [3, 23]: 0/10
tumor growth suppression (tg supp.) [3, 23]: 75%

[Cl-].[Na+] [table salt]
LD50 [5]: 3750 mg/kg

COc1cccc2c1C(=O)c1c(O)c3c(c(O)c1C2=O)C[C@@](O)(C(=O)CO)C[C@@H]3O[C@H]1C[C@H](N)[C@H](O)[C@H](C)O1 [Adriamycin, reference compound]
EC-50 Result (HT29 colon tumor cells; HT29, first column): 0.03 ppm
EC-50 Result (HT29 colon tumor cells; HT29, second column): 0.006 ppm
EC-50 Result (MX1 breast cells; MX1, first column): 0.02 ppm
EC-50 Result (MX1 breast cells; MX1, second column): 0.001 ppm
EC-50 Result (A549 lung tumor cells; A549, first column): 0.03 ppm
EC-50 Result (A549 lung tumor cells; A549, second column): 0.009 ppm

Nc1nc2c(ncn2COCCO)c(=O)[nH]1 [acyclovir, reference compound]
mean death date (herpes [6]; 75 mg/kg): 17.2 days
mice survived (herpes [6]; 75 mg/kg): 60%

c1ccc2[nH]c(-c3cscn3)nc2c1 [thiabendazole, 2-(4-thiazolyl)-1-H-benzimidazole]
Optical Density (HT29 colon tumor cells; 0.87 ppm): 0.852
Optical Density (HT29 colon tumor cells; 3.46 ppm): 0.713
Optical Density (HT29 colon tumor cells; 17.3 ppm): 0.204
Optical Density (HT29 colon tumor cells; 35 ppm): 0.011
Optical Density (HT29 colon tumor cells; 173 ppm): 0.005
Optical Density (A549 lung tumor cells; 0.87 ppm): 1.32
Optical Density (A549 lung tumor cells; 3.46 ppm): 1.12
Optical Density (A549 lung tumor cells; 17.3 ppm): 0.851
Optical Density (A549 lung tumor cells; 35 ppm): 0.411
Optical Density (A549 lung tumor cells; 173 ppm): 0.007
Optical Density ([7]; 0.87 ppm): 0.507
Optical Density ([7]; 3.46 ppm): 0.466
Optical Density ([7]; 17.3 ppm): 0.258
Optical Density ([7]; 35 ppm): 0.025
Optical Density ([7]; 173 ppm): 0.007
activity against B16 (B-16 mouse melanoma; mouse, in vivo): no activity
activity against P388 (P388; mouse, in vivo): no activity
activity against MX1 breast cancer tumors ([4]; implanted subcutaneously under the mice skin): no activity
concentration at which stable reductions in virus production were observed ([8]; after 28 days of treatment): greater than 10 μg/ml
concentrations that inhibited virus production ([8]; chronically infected cells): 1 to 10 µg/mL
virus production [9]: totally suppressed
day by which virus production resumed after washing free of compound ([10]; 40 μg/ml): ≤ 12 days
day at which virus production was observed after washing free of compound ([10]; highest concentrations): ~70 days
time until virus production resumed after washing free of compound ([10]; lower concentrations (20 μg/ml and 4 μg/ml)): ≤ 4 days
virus production from pretreated cell populations, Groups 1-3 [11]: identical
suppression of replication in the HIV monocytes ([2]; 60 μg/ml): 74%
increase of T-cell HIV replication [12]: 26%
inhibition at 60 µg/mL (HIV; Human immunodeficiency virus 1, 60 μg/ml, read-out: inhibition of viral replication): 98%
mean death date (herpes [6]; 100 mg/kg): 9.2
mice survived (herpes [6]; 100 mg/kg): 50%
mean death date (herpes [6]; 200 mg/kg): 10.4
mice survived (herpes [6]; 200 mg/kg): 10%
activity (influenza [13]): no activity
mean death date (influenza [1]; 100 mg/kg): 8.7 days
mice survived (influenza [1]; 100 mg/kg): 62%
mean death date (influenza [1]; 200 mg/kg): 8 days
mice survived (influenza [1]; 200 mg/kg): 67%
activity (herpes [14]): no activity
positive results / tumors tested ([15]; 1 Hour Exposure, 0.5 μg/ml): 0/3
positive results / tumors tested ([15]; 1 Hour Exposure, 5.0 μg/ml): 0/3
positive results / tumors tested ([15]; 1 Hour Exposure, 50.0 μg/ml): 0/3
positive results / tumors tested ([15]; Continuous Exposure, 0.5 μg/ml): 1/10
positive results / tumors tested ([15]; Continuous Exposure, 5.0 μg/ml): 2/10
positive results / tumors tested ([15]; Continuous Exposure, 50.0 μg/ml): 7/10

— US6362207B1, “Methods of treating viral infections with benzimidazoles” (priority 1995, dated 2002)
